According to patent US20080058383A1 (priority 2003, published 2008):
pEC50, pIC50: −log10 of the molar value. Where two headings read alike, the source gives them in different places.

Experiments:
[1] = target: T1, Recombinant human androgen receptor (hAR) (Homo sapiens, UniProt P10275); experiment: AR competition binding assay (3H-mibolerone tracer)
T1 construct: made in house; host or cells: Sf9 insect cells
T1 sequence (P10275 1-920): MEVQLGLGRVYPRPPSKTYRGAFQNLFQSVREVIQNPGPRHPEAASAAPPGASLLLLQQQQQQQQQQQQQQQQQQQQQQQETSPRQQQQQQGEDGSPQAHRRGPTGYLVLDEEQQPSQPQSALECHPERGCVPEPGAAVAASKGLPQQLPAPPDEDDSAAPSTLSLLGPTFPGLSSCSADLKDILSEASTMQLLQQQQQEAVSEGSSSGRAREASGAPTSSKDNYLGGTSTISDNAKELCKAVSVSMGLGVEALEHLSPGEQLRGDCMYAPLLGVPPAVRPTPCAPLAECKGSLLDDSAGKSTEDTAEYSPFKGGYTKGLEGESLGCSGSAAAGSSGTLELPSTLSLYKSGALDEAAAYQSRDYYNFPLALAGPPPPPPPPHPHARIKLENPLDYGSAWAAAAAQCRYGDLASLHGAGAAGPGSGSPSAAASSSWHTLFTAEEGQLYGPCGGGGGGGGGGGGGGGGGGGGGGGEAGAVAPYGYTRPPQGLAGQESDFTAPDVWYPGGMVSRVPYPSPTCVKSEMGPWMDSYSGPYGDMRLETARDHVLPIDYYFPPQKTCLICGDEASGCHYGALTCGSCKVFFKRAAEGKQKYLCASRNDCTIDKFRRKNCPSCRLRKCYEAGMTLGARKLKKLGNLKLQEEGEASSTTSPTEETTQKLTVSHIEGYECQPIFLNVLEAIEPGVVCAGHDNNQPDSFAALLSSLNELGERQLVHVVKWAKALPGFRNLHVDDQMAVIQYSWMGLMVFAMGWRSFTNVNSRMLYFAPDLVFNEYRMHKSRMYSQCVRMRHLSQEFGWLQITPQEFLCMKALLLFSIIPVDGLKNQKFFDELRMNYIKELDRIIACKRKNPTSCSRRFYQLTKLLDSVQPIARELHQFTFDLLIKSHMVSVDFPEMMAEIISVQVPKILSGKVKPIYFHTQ
Method: Recombinant human androgen receptor (hAR) was extracted from Sf9 insect cells with buffer containing 1 mM EDTA, 20 mM K2HPO4, 8.7% glycerol, 20 mM Na2MoO4 and 12 mM MTG at 5*10^7 cells/ml. The cell debris was removed by centrifugation and the supernatant aliquoted and stored at −70° C.
An aliquot of AR extract was thawed on ice prior to use and diluted to approximately 0.2 nM (1 to 30 dilution) in buffer (100 mM KnHmPO4 pH 7.0, 1 mM EDTA, 8.7% glycerol, 20 mM Na2MoO4 and 1 mM DTT). The test ligands were diluted in DMSO as a dilution series of 10 concentrations in duplicate, with 1:5 dilution between each concentration. Tritiated mibolerone (^3H-Mib) was used as tracer compound and diluted to 1.6 nM in 1 mM EDTA, 20 mM Na2MoO4, 8.7% glycerol and 1 mM DTT. To a 96-well polypropylene-plate 110 μl/well of 1.6 nM ^3H-Mib, 10 μl/well test substance and 110 μl/well diluted AR was added. The plates were covered and incubated at +4° C. over night. The plates were harvested on filters to separate bound ligand from unbound ligand with a Tomtec Harvester. A prewet buffer containing 20 mM Kn(PO4) pH 7.6, 1 mM EDTA, v/v 0.5% polyethyleneimine was used to equilibrate the filter before filtering the samples and washing the filters with 20 mM Kn(PO4) pH 7.6, 1 mM EDTA 8 times. The filters were allowed to dry for 1 hour at +65° C. A scintillating wax was melted upon the filter and the radioactivity retained on the filter was measured in a Wallac Microbeta scintillation counter.
The affinity to AR was evaluated by a non-linear four-parameter logisitic model: b=(bmax−bmin)/(1+(IC50/I)̂S)+bmin, where bmax=total concentration of binding sites, bmin=non-specific binding, I=added concentration of binding inhibitor, IC50=concentration of binding inhibitor at half-maximal binding and S=slope factor. Table: Antagonist and partial antagonist and binding activity of androgen receptor modulator compounds.

[2] = target: T2, androgen receptor (CMV-hAR) in CV-1 cells (Homo sapiens, UniProt P10275); experiment: AR transactivation assay, agonist mode (ARAF cells, ALP reporter, absence of Mibolerone); format: cell-based; conditions: for ARAF % AGONIST: ALP activity in absence of Mibolerone compared to standard activation curve of Mibolerone alone
T2 construct: expressed in transfected cells
T2 sequence (P10275 1-920): T1 sequence (P10275 1-920)
Method: (§1) The agonist and antagonist properties of compounds were determined using a cell-based system expressing stably integrated androgen receptor and an androgen responsive reporter gene. CV-1 cells (kidney fibroblasts) stably expressing CMV-hAR and alkaline phosphatase (ALP) driven by an MMTV promoter containing an androgen response element were cultured in Dulbecco's Modified Eagle Medium (DMEM), low glucose supplemented with 10% fetal bovin serum, 1% L-glutamine, and 0.7% Hygromycine B. The stably integrated cells (ARAF) were trypsinized and resuspended in Opti-MEM 1 supplemented with 2% fetal bovine serum, 1% L-Glutamine, 50 μg/ml Gentamicine and 1% Pen/Strep. The cells were counted in a Birch chamber and diluted to a concentration of 100 000 cells/ml. The cells were then seeded out in 384 plates, 5000 cells/well in 50 μl seeding media and incubated overnight in 37 C, 5% CO2.
(§2) The next day, the seeding medium was removed from the cells and 20 μl induction media (Opti-MEM 1 supplemented with 1% L-Glutamine, 50 μg/ml Gentamicine and 1% Pen/Strep)+/−0.1 nM Mibolerone was added to the wells. 10 μl of test compound diluted in induction media was then added to the wells. The cells were incubated 48 hr in 37 C, 5% CO2.
(§3) After 48 hr 5 μl of cell medium was added to white 384 plates with 100 μl of ALP substrate buffer. The plates were incubated in 37 C for 20 minutes followed by incubation at room temperature for 10 minutes before each well was read in a μBETA machine. Agonist activity was calculated from the alkaline phosphatase activity induced in the absence of Mibolerone and compared to standard activation curve generated by Mibolerone alone. Antagonist activity was calculated from the decrease in ALP activity in the presence of 0.1 nM Mibolerone. EC50 and IC50 values were calculated by using a non-linear four-parameter fit as described above.

[3] = target: T2, androgen receptor (CMV-hAR) in CV-1 cells; experiment: AR transactivation assay, antagonist mode (ARAF cells, ALP reporter, presence of 0.1 nM Mibolerone); format: cell-based; conditions: for ARAF % ANTAGONIST: decrease in ALP activity in the presence of 0.1 nM Mibolerone
Method: as §1, §2, §3

[4] = competition with 3H-Mib, hAR extract from Sf9 cells, +4° C. over night, read-out: AR_LT IC50
[5] = CV-1 cells stably expressing hAR and MMTV-ALP, absence of Mibolerone, 48 hr, read-out: ARAF EC50
[6] = CV-1 cells stably expressing hAR and MMTV-ALP, presence of 0.1 nM Mibolerone, 48 hr, read-out: ARAF IC50

CC(C)(CO)Nc1ccc([N+](=O)[O-])c(C(F)(F)F)c1 [Example-1, 2-Methyl-2-(4-nitro-3-trifluoromethyl-phenylamino)-propan-1-ol]
pIC50 [1, 4]: 7.64
pEC50 [2]: 7.57
ARAF % AGONIST [2]: 51.7%
pIC50 [3]: 8.68
ARAF % ANTAGONIST [3]: 33.1%

Cc1cc(NC(C)(C)CO)ccc1[N+](=O)[O-] [Example-5]
pIC50 [1, 4]: 7.42
ARAF % AGONIST [2]: 29.3%
pEC50 [2, 5]: 7.09
pIC50 [3, 6]: 8.14
ARAF % ANTAGONIST [3]: 61%

Cc1nc(NC(C)(C)CO)ccc1[N+](=O)[O-] [Example-8, 2-Methyl-2-(6-methyl-5-nitro-pyridin-2-ylamino)-propan-1-ol]
pIC50 [1, 4]: 6.62
ARAF % AGONIST [2]: 10.6%
pEC50 [2, 5]: 6.43
pIC50 [3, 6]: 7.65
ARAF % ANTAGONIST [3]: 82.5%

N#Cc1ccc(NC2(CO)CCCC2)cc1C(F)(F)F [Example-19, 4-(1-Hydroxymethyl-cyclopentylamino)-2-trifluoromethyl-benzonitrile]
pIC50 [1, 4]: 6.88
pIC50 [3]: 7.65
ARAF % ANTAGONIST [3]: 95.6%

CC(C)[C@@H](CO)Nc1ccc([N+](=O)[O-])c(C(F)(F)F)c1 [Example-30]
pIC50 [1, 4]: 6.95
pEC50 [2]: 5.97
ARAF % AGONIST [2]: 7.3%
pIC50 [3]: 7.17
ARAF % ANTAGONIST [3]: 88.7%

O=[N+]([O-])c1ccc(N[C@H](CO)CSCc2ccccc2)cc1C(F)(F)F [Example-41]
pIC50 [1, 4]: 7.19
pIC50 [3, 6]: 6.31
ARAF % ANTAGONIST [3]: 71.7%

CCCC(CO)Nc1ccc([N+](=O)[O-])c(C(F)(F)F)c1 (centres unmarked) [Example-42]
pIC50 [1]: 6.31
pIC50 [3, 6]: 6.31
ARAF % ANTAGONIST [3]: 92%

CCCC[C@@H](CO)Nc1ccc([N+](=O)[O-])c(C)n1 [Example-60]
pIC50 [1, 4]: 7.17
ARAF % AGONIST [2]: 9.3%
pEC50 [2, 5]: 6.47
pIC50 [3, 6]: 7.56
ARAF % ANTAGONIST [3]: 79.3%

CC[C@H](C)[C@@H](CO)Nc1ccc([N+](=O)[O-])c(C)n1 [Example-61]
pIC50 [1, 4]: 7.05
pIC50 [3]: 7.17
ARAF % ANTAGONIST [3]: 87.4%

Cc1nc(N[C@H](CO)CSCc2ccccc2)ccc1[N+](=O)[O-] [Example-65]
pIC50 [1, 4]: 8.21
ARAF % AGONIST [2]: 7%
pEC50 [2, 5]: 5.73
pIC50 [3, 6]: 7.11
ARAF % ANTAGONIST [3]: 89.2%

CCCC(CO)Nc1ccc([N+](=O)[O-])c(C)c1 (centres unmarked) [Example-78]
pIC50 [1, 4]: 7.26
ARAF % AGONIST [2]: 25%
pEC50 [2, 5]: 6.55
pIC50 [3, 6]: 7.59
ARAF % ANTAGONIST [3]: 65.4%

Cc1cc(NCCNc2ccc([N+](=O)[O-])cn2)ccc1[N+](=O)[O-] [Example-86]
pIC50 [1, 4]: 6.35
pIC50 [3, 6]: 6.46
ARAF % ANTAGONIST [3]: 100%

CCC[C@@H](CO)Nc1ccc([N+](=O)O)cc1 [Example-103, (S)-2-(4-Nitro-phenylamino)-pentan-1-ol]
pIC50 [1, 4]: 7.01
pIC50 [3, 6]: 6.87
ARAF % ANTAGONIST [3]: 92.9%

CCC[C@@H](CO)Nc1ccc([N+](=O)[O-])cc1Br [Example-106, (S)-2-(2-Bromo-4-nitro-phenylamino)-pentan-1-ol]
pIC50 [1]: 6.77
pIC50 [3, 6]: 6.62
ARAF % ANTAGONIST [3]: 88.2%
